Laboratory results as given in patent US9399047B2, “Composition and method to alleviate joint pain using phospholipids and roe extract” (U.S. NUTRACEUTICALS, LLC, priority 2009, dated 2016).

Columns and labels:
[1] = cited from earlier work
inflammatory markers = settings: astaxanthin 1 mg/kg, cited from earlier work
NO, PGE-2 and TNF-Alpha = settings: induced uveitis; cited from earlier work
[2] = system: C-Reactive Protein (C-RP); settings: human subjects with high risk levels of C-RP, three months of treatment; cited from earlier work
[3] = system: cellular membrane lipid peroxidation; settings: cited from earlier work
lens epithelial cells = settings: in vitro, umol/L concentrations; cited from earlier work
[4] = 4 mgs/day, compared to untreated subjects; cited from earlier work
[5] = cited from earlier work; remark: listed apart in the source
[6] = cited from earlier work; remark: listed apart in the source
[7] = system: photo-receptors, ganglion and neuronal cell; settings: cited from earlier work
[8] = serum; cited from earlier work
healthy adults = settings: eight weeks, 6 mg per day; cited from earlier work
rats = settings: cited from earlier work
solubility = type: physicochemical
Excerpt: It is also possible to use a pure diol of the S,S′ astaxanthin, including a synthetic diol with a surfactant and/or the low molecular weight hyaluronic acid. It is possible to use that pure diol in combination with the EPA rich algae based oil or other fish, roe extract, or plant based oil and/or phospholipid and/or surfactant as described above, and which is admixed with either astaxanthin derived from Haematococcus pluvialis or the free diol form in substantially pure S,S′ enantiomer form. It is possible to add synthetically derived mixed enantiomers of the diol. The diol of the S,S′ astaxanthin is possible because in cases of krill oil and possibly algae based oils and Hp derived and other types, there are principally diesters and monoesters respectively with very little diol, which is insoluble. […] It is possible to synthesize asymmetrically the S,S′ pure diol. Despite the pure diol's poor solubility in some examples, there may be an active transport mechanism related to its bioavailability, or conversely, that only in the diol form is the monoester or diester forms transferred from the intestines to the blood. […]

CCCCCCCCCCCCCCCC(=O)O[C@H]1CC(C)(C)C(/C=C/C(C)=C/C=C/C(C)=C/C=C/C=C(C)/C=C/C=C(C)/C=C/C2=C(C)C(=O)[C@@H](OC(=O)CCCCCCCCCCCCCCC)CC2(C)C)=C(C)C1=O [(3R,3′R-astaxanthin dipalmitate, reference compound]
relative absorption of astaxanthin compared to the other two isomers ([1]; men, astaxanthin fatty acyl diesters (Coral-Hinostroza et al. 2004)): higher relative absorption

CC1=C(/C=C/C(C)=C/C=C/C(C)=C/C=C/C=C(C)/C=C/C=C(C)/C=C/C2=C(C)C(=O)[C@@H](O)CC2(C)C)C(C)(C)C[C@H](O)C1=O [Astaxanthin, 3,3′-dihydroxy-β-β-carotene-4,4′-dione]
down regulates TNF-alpha production (inflammatory markers; in vitro and in vivo): 75% | down regulates prostaglandin E-2 production (PGE-2) (inflammatory markers; in vitro and in vivo): 75% | inhibits nitric oxide synthase (Nos) expression of nitric oxide (inflammatory markers; in vitro and in vivo): 58% | effects on inflammatory markers compared with prednisolone (inflammatory markers): nearly as effective as prednisolone | ocular anti-inflammatory activity by suppression of NO, PGE-2 and TNF-Alpha (NO, PGE-2 and TNF-Alpha): dose dependant ocular anti-inflammatory activity | patients whose serum C-RP levels dropped below the risk level [2]: 43% | effect on pro-oxidant activity of Vioxx [3]: negate the pro-oxidant activity of Vioxx | UVB induced lipid peroxidative mediated cell damage (lens epithelial cells): suppresses | post exercise joint fatigue following strenuous knee exercise [4]: prevented post exercise joint fatigue | quenching of singlet oxygen, times more powerful than Vitamin E ([5]; versus Vitamin E): about 50 times | quenching of singlet oxygen, relative to lutein ([5]; versus lutein): three times more powerful | quenching of singlet oxygen, times more powerful than β-carotene ([5]; versus β-carotene): 11 times | free radical quenching ability, times more powerful than Vitamin C ([6]; versus Vitamin C): 65 times | free radical quenching ability, times more powerful than Vitamin E ([6]; versus Vitamin E): 14 times | free radical quenching ability, times more powerful than lutein ([6]; versus lutein): 47 times | free radical quenching ability, times more powerful than β-carotene ([6]; versus β-carotene): 54 times | crossing of the blood-brain-retina barrier ([7]; direct measurement of retinal astaxanthin concentrations): crosses the blood-brain-retina barrier | photon induced damage of photo-receptors, ganglion and neuronal cell damage ([7]; in vivo): protection | Cmax [8]: 65 ng/mL | T1/2 [8]: 16 h | Tmax [8]: 8 h | negative effect of supplementation (healthy adults): no negative effect | Oral LD 50 (rats; rat, in vivo, po): 600 mg/kg | NOAEL (rats; rats): 465 mg/kg

CC1=C(/C=C/C(C)=C/C=C/C(C)=C/C=C/C=C(C)/C=C/C=C(C)/C=C/C2=C(C)C(=O)[C@@H](O)CC2(C)C)C(C)(C)C[C@H](O)C1=O [diol of the S,S′ astaxanthin]
solubility (solubility): insoluble

CC1=C(/C=C/C(C)=C/C=C/C(C)=C/C=C/C=C(C)/C=C/C=C(C)/C=C/C2=C(C)C(=O)[C@@H](O)CC2(C)C)C(C)(C)C[C@H](O)C1=O [free astaxanthin diol]
uptake relative to esterified astaxanthin ([1]; human plasma, feeding studies): 4-5 times
